Source: PMC4309438, “Capacitance-modulated transistor detects odorant binding protein chiral interactions” (Nature Communications, 2015)
Read-outs that look alike come from different tables or passages of the source.

What was measured:
pOBP-mutant-F88W = target: T1, pOBP-mutant-F88W (Sus scrofa, UniProt P81245, F88W); assay: Competitive fluorescent binding assay of pOBP in solution (1-AMA probe); design: species or system porcine; settings: pOBP and 1-AMA probe at 1 μM, 10 mM phosphate buffer pH 7.4, room temperature, calculated from IC50, read-out: dissociation constant KSol
T1 construct: His6 (N); made in house; host or cells: Escherichia coli BL21(DE3), pET5b vector
T1 sequence (P81245 1-157 F88W): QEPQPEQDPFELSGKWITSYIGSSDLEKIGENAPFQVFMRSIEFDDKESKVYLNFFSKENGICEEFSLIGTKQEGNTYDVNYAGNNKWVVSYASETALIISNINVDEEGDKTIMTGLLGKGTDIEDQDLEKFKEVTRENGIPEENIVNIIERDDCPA
Protocol: Emission fluorescence spectra were recorded using a Perkin Elmer LS55 instrument at room temperature, with a 1 cm light path quartz cuvette and 5 nm slits for both excitation and emission. The affinity of binding of pOBP was measured using the fluorescence probe 1-AMA as previously reported. About 1 μM pOBP-F88W solution in 10 mM phosphate buffer, pH 7.4, was titrated with aliquots of 1 mM 1-AMA in methanol to final concentrations of 0.25–8 μM. The probe was excited at 375 nm and the fluorescence spectra were recorded between 400 to 570 nm, monitoring the signals between 480 and 490 nm. The dissociation constant (K1-AMA) for the OBP/1-AMA complex was calculated using the equation y=(Bmax × x)/(K1-AMA+x), where y is the degree of saturation, Bmax is the number of maximum binding sites, and K1-AMA is the dissociation constant. The calculation was run using the software Sigma Plot and a single binding site was considered for the OBP.
The affinity of pOBP-F88W towards S-(+)-carvone and R-(−)-carvone and 2-phenylethanol was measured in competitive binding assays, using both pOBP and probe at 1 μM as the final concentration. The ligand solutions, with concentrations ranging from 2 to 20 μM, were prepared in 10 mM phosphate buffer pH 7.4 and used for the binding experiments. Dissociation constants of competitors were calculated from the corresponding IC50 values, using the equation: KSol=[IC50]/1+[1-AMA]/K1-AMA, where [1-AMA] is the free concentration of the fluorescence probe and K1-AMA is the dissociation constant of the complex OBP/1-AMA.

[1] = target: T2, pOBP-SAM (pOBP-F88W immobilized on gold gate) (Sus scrofa, UniProt P81245, F88W); assay: WGOFET with pOBP-SAM gate: binding curves from ΔI/I electronic response; design: species or system porcine; settings: for α (Hill degree of cooperativity): Hill's isotherm fit of binding curve of Fig. 5b; for Kd: pOBP-SAM gate, fit of ΔI/I binding curve of Fig. 5b; for ΔC/C, fractional change of pOBP-SAM capacitance (measured chiral response): at saturation, extracted from source-drain current (Fig. 8a); for plateau response at saturation (ΔI/I): best-fit parameter of binding curve of Fig. 5b, IDS at VG=−0.5 V; for WGOFET response at saturation: binding curves of Fig. 5b; for maximum fractional decrease of IDS: control experiment of Fig. 6: same pOBP-SAM gate exposed alternately to the two enantiomers, rinsed between exposures
T2 construct: His6 (N); made in house; host or cells: Escherichia coli BL21(DE3), pET5b vector
T2 sequence (P81245 1-157 F88W): T1 sequence (P81245 1-157 F88W)
Source text: where Ci≈COBP is the capacitance per unit area. In Fig. 5a, the pOBP-WGOFET transfer-characteristics (IDS versus VG at VDS=−0.5 V) are reported for a device gated with a pristine pOBP-SAM (baseline, red curve) along with the traces measured after exposing the pOBP-SAM to progressively higher concentrations of (S)-(+)carvone (signal, black curves). Apparently, a significant degree of current decrease can be measured even at very low ligand concentrations. In the Supplementary Fig. 8, the gate leakage currents (IG) for the data of Fig. 5a are reported for comparison. […] From the transfer curve the COBP and μFET product, as well as the VT values are extracted. μFET can be as high as (1.1±0.2) × 10^−1 cm^2 V^−1 s^−1, showing a very good level of performance for the pOBP-SAM WGOFET[37]. The fractional current decrease upon binding was evaluated from the transfer curves as ΔI/I=[(I−I0)I0^−1] with I and I0 being IDS values at VG=−0.5 V for the signal and for the base-line curves, respectively. ΔI/I was taken as the WGOFET electronic response as this normalizes the device-to-device variation in FET biosensors, resulting in high response reproducibility.
The fitting of the (S)-(+)-carvone binding curve (red solid line in Fig. 5b) is performed using Langmuir’s isotherm Y=bMAX(X/(KFET+X)), where Y is the ΔI/I electronic response proportional, through bmax, to the degree of saturation. X is the ligand concentration and KFET is the dissociation constant. The fitting of the (R)-(−)-carvone (magenta solid curve in Fig. 5b) was calculated using Hill’s binding model, also used to model the data relevant to the 2-phenylethanol (blue curve). The Hill’s equation is Y=bMAX(X^α/(KFET+X^α)), with α giving the degree of cooperativity (α=1 for non-cooperative, α>1 and α<1 for positive and negative cooperativity, respectively). The fit of the S-(+)-carvone data to a Langmuir’s non-cooperative binding isotherm[39] returns a dissociation constant KFET^+=0.81±0.05 nM and a plateau response at a saturation of (ΔI/I)^+=0.62±0.01, while the limit-of-detection is 50 pM and the limit-of-quantification is 150 pM. The detection of carvone enantiomers here performed is about 6 orders of magnitude better than the determinations performed with a back-gate device. A comparison between the two systems is not straightforward as they hold different device structures and different recognition elements. However, it is a fact that in the WGOFET a direct interaction between the bio-recognition element layer and an electronic interface, is created. The R-(−)-carvone data could only be accounted for by a Hill’s binding isotherm[38] that, through the α coefficient, models the extent of cooperativity of a given binding site. […] The fitting of the S-(+)-carvone to the Hill’s isotherm, performed as control, returns a KFET=0.4±0.2 nM and an α=1.1±0.1, consistent with the Langmuir’s fit. The errors are taken as 1 s.d., as for all data presented.
PBTTT-C14 was dissolved (7 mg ml^−1) in a mixture of 1,2-dichlorobenzene and chloroform (9:1). Gold source (S) and drain (D) interdigitated electrodes were photo-lithographically defined on a flexible substrate. The distance between two differently biased fingers is the channel length (L), while the perimeter of each set of equipotential fingers is the channel width (W); they are 5 μm and 10^4 μm, respectively. The substrate with patterned electrodes was spin coated with a PBTTT-C14 solution at 7,000 r.p.m. for 60 s and annealed at 120 °C for 10 min. A gold plate with an area of ~3 10^−2 cm^2 served as the gate (G) electrode. The SAM functionalizing protocol[52] involved a 50 mM solution of 3-mercaptopropionic acid (3MPA) in ethanol containing 5% acetic acid. N2 was bubbled through the 3MPA solution for at least 10 min to remove dissolved oxygen. The gold electrodes were immersed into the 3MPA solution and kept in the dark under N2 for 18 h at 22 °C. […]

human = system: human; design: method as in earlier work; settings: perceived as spearmint or caraway odours; cited from earlier work
[2] = read-out: dissociation constant KFET (Hill's isotherm fit)

SMILES	Kd (pOBP-mutant-F88W) [nM]	α (Hill degree of cooperativity) [1]	Kd [1, 2] [nM]	human threshold for detection (odour) (human) [nM]	ΔC/C, fractional change of pOBP-SAM capacitance (measured chiral response) [1]	plateau response at saturation (ΔI/I) [1]	WGOFET response at saturation [1] [%]	maximum fractional decrease of IDS [1]	limit-of-detection ([1]; pOBP-SAM WGOFET) [pM]	limit-of-quantification ([1]; pOBP-SAM WGOFET) [pM]	Kd ([1]; three devices, read-out: dissociation constant KFET (Langmuir's isotherm fit)) [nM]
OCCc1ccccc1 [2-phenylethanol]	~40000	0.3±0.1	700 ± 330								
C=C(C)[C@@H]1CC=C(C)C(=O)C1 [(R)-(−)-carvone]	1220 ± 50	0.5±0.1	20 ± 20	30	−0.17	0.17±0.02	< 20	much higher response at saturation			
C=C(C)[C@H]1CC=C(C)C(=O)C1 [(S)-(+)-carvone]	500 ± 10	1.1±0.1	0.4 ± 0.2	420	−0.485	0.62±0.01	> 60	~ 60%	50	150	0.81 ± 0.05
